Experimental data as given in PMC4366162 (PLoS ONE, 2015).
Where a name gives a salt, the structure may show the parent alone. Read-outs that look alike come from different tables or passages of the source.

Columns and labels:
[1] = test system: LPS-induced NO production in rat kidney mesangial cells (HBZY-1); assay: Total nitrite assay (Griess): inhibition of LPS-induced NO production in kidney mesangial cells; type: cell-based; conditions: for IC50: read-out: IC50 against LPS-induced NO production (total nitrite)
Procedure: (§1) Rat mesangial HBZY-1 cells were obtained from China Center for Type Culture Collection (Wuhan, China). Cells were maintained in high glucose DMEM medium (Invitrogen, USA) supplemented with 10% heat-inactivated fetal bovine serum (FBS), 25 mM HEPES, 2 mM L-glutamine, 0.1 mM nonessential amino acids, 1.0 mM sodium pyruvate, 50 U/mL penicillin, and 50 μg/mL streptomycin at 37°C and 5% CO2. The cell passage number used for the following investigation was between 10 to 20 passages.
Mesangial cells were plated on 48-well plates at a density of 50,000 cells per well overnight in DMEM media containing 2% FBS. Cells were treated by flavonoid compounds at a series of concentrations from 0, 0.05, 0.1, 0.5, 1, 5, 10 to 50 μM or 0, 1, 5, 10, 50, 100 to 200 μM based on the initial activity range with or without 10 ng/mL LPS. Total nitrite production in the treatment media after 48 h was measured with Griess assay. Briefly, 100 μL media was mixed with 25 μL of reagent І (1% sulfanilamide in 5% phosphoric acid) and then 25 μL of reagent II (0.1% N-1-napthylethylenediamine dihydrochloride in water). The optical absorbance of the resulting solution was recorded at 540 nm with a 318C-microplate reader (Sanco Instrument Ltd. Shanghai, China) after 20 min. […] IC50 values were obtained using the dose-response analysis provided by the GraphPad Prism software.
All of the hydroxylated flavones were abbreviated as the positions of hydroxyl groups followed by—HO. The total production of nitrite in the treatment media was measured with Griess assay at 48 h post 10 ng/mL LPS stimulation.

[2] = NO radical quenching study (spontaneous NO from sodium nitroprusside, Griess assay); conditions: sodium nitroprusside 5 mM in solution, read-out: IC50 of inhibition of spontaneously generated NO radicals from sodium nitroprusside
Procedure: Spontaneous generation of NO in solutions was achieved by a freshly prepared sodium nitroprusside stock solution in water (50 mM). The level of total nitrile production was determined by the Griess assay with the standard curve of sodium nitrile as described above. For the assay of NO inhibition by flavonoids, sodium nitroprusside solution (10 mM, 25 μL) was mixed with an equal volume of flavonoid solution in 50% DMSO, and the resulting solution was incubated at room temperature for 10 min. Griess reagent І and Griess reagent II (75 μL each) were subsequently added with a gap of 10 min. The optical density at 540 nm was recorded on a 318C-microplate reader after 15 min. The resulting data were processed and analyzed by the GraphPad Prism Software as described above.
Fig 3 Direct NO radical quench study with selected monohydroxylated and polyhydroxylated flavones. Spontaneous generation of NO was achieved by a freshly prepared sodium nitroprusside stock solution (5 mM) in water in Griess assay (top).

cytochrome P450 2C9 = test system: cytochrome P450 2C9; design: method as in PMID 19515014; conditions: cited from earlier work
[3] = test system: phosphorylated p65 protein (NF-κB pathway); assay: Western blot analysis of LPS-activated NF-κB pathway (phosphorylated p65); type: cell-based, rat; conditions: up to 1.0 μM, 12 h pretreatment, LPS 500 ng/mL, 15 min
Procedure: (§2) Cells were plated in growth media overnight at a density of 1×10^6 cells per well on a 6-well plate. […] For the western blot analysis, cells were washed with PBS and then lysed with 150 μL RIPA buffer containing protease and phosphatase inhibitor cocktail. The supernatants were collected by centrifuge at 14,000 g×10 min at 4°C and stored at -80°C. The total protein content of lysates was determined by enhanced BCA protein assay kit (Beyotime Institute of Biotechnology, Shanghai, China). Electrophoresis was carried out on a NuPAGE Novex Bis-Tris […] gel (Invitrogen, USA) under the reduced condition. After electrophoresis separation, proteins were transferred to membranes and incubated with rabbit monoclonal phospho-NF-κB-p65 antibody (3033S, 1:1000 dilution, Cell Signaling, USA), rabbit polyclonal iNOS antibody (ab3523, 1:500 dilution, Abcam, USA) or mouse monoclonal β-actin antibody (ANT009, 1:1000 dilution AntGene, China). Targeted proteins were then visualized with Qdot 625 conjugate kit (Invitrogen, USA). Gel images were captured with ZF-258 Gel Imaging System (Shanghai Jiapeng Scientific Co. Ltd, China) under illuminating light at 350 nm.
(§3) Fig 5 Western blot analysis of potential molecular targets by 6-methoxyflavone in kidney mesangial cells with LPS as the inflammatory stimuli. […]

[4] = test system: inducible NO synthase (iNOS); assay: Western blot analysis of LPS-induced iNOS protein; type: cell-based, rat; conditions: 12 h pretreatment, LPS 500 ng/mL, 24 h
Procedure: as §2, §3

mesangial cells = assay: MTT cell viability assay; type: cell-based, rat; conditions: 48 h
Procedure: as §1
Cells were plated overnight in growth media (5,000 cells per well) and then treated with each compound for 48 h at increasing concentrations with total DMSO at 0.1%. MTT assay was carried out as reported, and cell viability was plotted with GraphPad Prism program.

[5] = Rattus norvegicus, HBZY-1, 48 h, rat mesangial cells, 10 ng/mL LPS, 48 h, Griess assay
[6] = Rattus norvegicus, HBZY-1, 48 h

SMILES | IC50 [1, 5] [µM] | further results
O=c1c(O)c(-c2ccc(O)cc2O)oc2cc(O)cc(O)c12 [2',3,4',5,7-HO, morin] | ~200 | 
O=c1c(O)c(-c2ccc(O)cc2O)oc2ccc(O)cc12 [2',3,4',6-HO, 2′,3,4′,6-tetrahydroxyflavone] | ~200 | 
O=c1c(O)c(-c2ccccc2O)oc2c(O)c(O)ccc12 [2',3,7,8-HO] | ~200 | 
O=c1cc(-c2cc(O)c(O)c(O)c2)oc2cc(O)cc(O)c12 [3',4',5',5,7-HO, tricetin] | ~200 | 
O=c1c(O)c(-c2cc(O)c(O)c(O)c2)oc2cc(O)cc(O)c12 [3,3',4',5',5,7-HO, 3,3′,4′,5,5′,7-hexahydroxyflavone] | > 200 | IC50 [2]: ~10000 µM
O=c1c(O)c(-c2ccc(O)c(O)c2)oc2c(O)c(O)cc(O)c12 [3,3',4',5,7,8-HO, 3,3′,4′,5,7,8-hexahydroxyflavone] |  | IC50 [1, 6]: > 200 µM
O=c1c(O)c(-c2ccc(O)c(O)c2)oc2cc(O)cc(O)c12 [3,3',4',5,7-HO, quercetin] | 22 | 
O=c1c(O)c(-c2ccc(O)c(O)c2)oc2cc(O)ccc12 [3,3',4',7-HO, fisetin] | 11 | 
O=c1c(O)c(-c2cccc(O)c2)oc2cc(O)ccc12 [3,3',7-HO] | 11 | 
O=c1cc(-c2ccc(O)cc2)oc2cc(O)cc(O)c12 [4',5,7-HO, apigenin] | > 200 | 
O=C1O[C@H]([C@@H](O)CO)C(O)=C1O [ascorbic acid, reference compound] |  | IC50 [2]: 254 µM
O=c1cc(-c2ccccc2)oc2ccc(O)cc12 [compound 1, 6-hydroxyflavone] | ~2 | mode of inhibition of cytochrome P450 2C9 (cytochrome P450 2C9): noncompetitive inhibition; IC50 [2]: > 500 µM; IC50 ([1]; rat mesangial cells, 10 ng/mL LPS, 48 h, Griess assay): 1.7 µM
O=c1cc(-c2ccccc2)oc2cc(O)ccc12 [compound 2, 7-hydroxyflavone] |  | IC50 [2]: > 500 µM; IC50 [1, 6]: 46 µM
O=c1cc(-c2ccccc2O)oc2ccccc12 [compound 3] | > 200 | 
O=c1c(O)c(-c2ccccc2)oc2ccccc12 [compound 4, 3-Hydroxyflavone] | > 200 | IC50 [2]: > 500 µM
O=c1cc(-c2ccc(O)cc2)oc2ccc(O)cc12 [compound 5, 4′,6-dihydroxyflavone] | ~2 | 
O=c1cc(-c2ccc(O)cc2)oc2cccc(O)c12 [compound 6] | 14 | increase of IC50 against LPS-induced NO production versus flavone 5 ([1]; shift of hydroxyl group from 6-position to 5-position): 7 fold
O=c1c(O)c(-c2ccccc2)oc2cc(O)ccc12 [compound 7] |  | IC50 [1, 6]: 27 µM
O=c1cc(-c2ccccc2)oc2c(O)c(O)ccc12 [compound 8] | 47 | 
COc1ccc2oc(-c3ccccc3)cc(=O)c2c1 [compound 9, 6-methoxyflavone] | 0.192 | inhibition of p65 activation (phosphorylated p65) [3]: no observable inhibition; potency against LPS-induced NO production relative to 6-hydroxyflavone ([1]; more potent than 6-hydroxyflavone (IC50 1.7 μM)): 10 fold; inhibition of downstream inducible NO synthase (iNOS) upon LPS stimulation ([4]; from 200 nM to 1.0 μM): significant inhibition; cytotoxicity on mesangial cells (mesangial cells; at 1.0 μM): weak cytotoxicity
CC(=O)Oc1ccc2oc(-c3ccccc3)cc(=O)c2c1 [compound 10, 6-Acetoxyflavone] | 0.6 | cytotoxicity on mesangial cells (mesangial cells; at 10 μM): weak cytotoxicity
O=c1cc(-c2ccccc2)oc2ccc(OS(=O)(=O)O)cc12 [compound 11, 6-flavone sulfate sodium salt] | 2.1 | cytotoxicity on mesangial cells (mesangial cells; at 10 μM): minimal
O=c1c(-c2ccc(O)cc2)coc2cc(O)ccc12 [daidzein, reference compound] | > 200 | 
Oc1ccc(/C=C/c2cc(O)cc(O)c2)cc1 [resveratrol, reference compound] | 11 | inhibition of downstream inducible NO synthase (iNOS) upon LPS stimulation ([4]; at 10 μM): weak inhibition
